Test results taken from patent publication US7351714B2, “7-imino derivatives of camptothecin having antitumor activity” (priority 2004, dated 2008).

Experiments:
NCI H460 = assay: antiproliferative activity test (cytotoxic activity) on human tumour cells; type: cell-based; settings: H-460
Procedure: Cytotoxic activity of the compounds of the present invention was assayed in cell systems of human tumour cells, using the antiproliferative activity test as a method of evaluation of the cytotoxic potential.
The cell line used is a lung non-small cell carcinoma that belongs to non-small cells hystotype named NCI H460.

[1] = test system: MKN-28 human gastric carcinoma; assay: antitumor activity per os in athymic nude mice bearing s.c. tumor xenograft; type: in vivo; settings: q4dx4; for TVI % (Tumor volume inhibition % in treated over control tumors): 11-12 day after last treatment
Source text: A compound is considered active when TVI %≧50.

[2] = cited from earlier work

| Structure (SMILES) | IC50 (NCI H460) | further results |
| --- | --- | --- |
| CC[C@@]1(O)C(=O)OCc2c1cc1n(c2=O)Cc2c-1nc1ccccc1c2C=Nc1ccccc1 [ST1546, 7-phenyliminomethylcamptothecin] | 0.13 µM |  |
| CC[C@@]1(O)C(=O)OCc2c1cc1n(c2=O)Cc2c-1nc1ccccc1c2C=Nc1ccc([N+](=O)[O-])cc1 [ST1561, 7-(4-nitrophenyl)iminomethylcamptothecin] | 0.28 µM |  |
| CC[C@@]1(O)C(=O)OCc2c1cc1n(c2=O)Cc2c-1nc1ccccc1c2C=Nc1ccccc1SSc1ccccc1N [ST1737, 7-2-(2-aminophenyldithio)phenyliminomethylcamptothecin] | 0.017 µM | Tox (Dead/treated mice) ([1]; 4 mg/kg per os): 0/4; TVI % (Tumor volume inhibition % in treated over control tumors) ([1]; 4 mg/kg per os): 69%; Tox (Dead/treated mice) ([1]; 7 mg/kg per os): 0/4; TVI % (Tumor volume inhibition % in treated over control tumors) ([1]; 7 mg/kg per os): 56%; BWL % (Body weight loss % induced by drug treatment) ([1]; 12 mg/kg per os): 4%; Tox (Dead/treated mice) ([1]; 12 mg/kg per os): 0/4; TVI % (Tumor volume inhibition % in treated over control tumors) ([1]; 12 mg/kg per os): 68% |
| CC[C@@]1(O)C(=O)OCc2c1cc1n(c2=O)Cc2c-1nc1ccccc1c2C=Nc1ccc(SSc2ccc(N)cc2)cc1 [ST2034, 7-4-(4-aminophenyldithio)phenyliminomethylcamptothecin] | 0.39 µM |  |
| CC[C@@]1(O)C(=O)OCc2c1cc1n(c2=O)Cc2c-1nc1ccccc1c2C=Nc1ccc(Sc2ccc(N)cc2)cc1 [ST2069, 7-4-(4-aminophenylthio)phenyliminomethylcamptothecin] | 0.24 µM |  |
| CC[C@@]1(O)C(=O)OCc2c1cc1n(c2=O)Cc2c-1nc1ccccc1c2C=Nc1ccccc1SC [ST2138, 7-(2-methylthiophenyl)iminomethylcamptothecin] | 0.06 µM |  |
| CC[C@@]1(O)C(=O)OCc2c1cc1n(c2=O)Cc2c-1nc1ccccc1c2C=Nc1ccccc1C [ST2212, 7-(2-methylphenyl)iminomethylcamptothecin] | 0.1 µM |  |
| CC[C@@]1(O)C(=O)OCc2c1cc1n(c2=O)Cc2c-1nc1ccccc1c2C=Nc1ccccc1Cl [ST2228, 7-(2-chlorophenyl)iminomethylcamptothecin] | 0.07 µM |  |
| CC[C@@]1(O)C(=O)OCc2c1cc1n(c2=O)Cc2c-1nc1ccccc1c2C=Nc1ccccc1I [ST2316, 7-(2-iodophenyl)iminomethylcamptothecin] | 0.06 µM |  |
| CC[C@@]1(O)C(=O)OCc2c1cc1n(c2=O)Cc2c-1nc1ccccc1c2C=Nc1c(C)cccc1C [ST2317, 7-(2,6-dimethylphenyl)iminomethylcamptothecin] | 0.15 µM |  |
| CC[C@@]1(O)C(=O)OCc2c1cc1n(c2=O)Cc2c-1nc1ccccc1c2C=Nc1ccccc1OC [ST2343, 7-(2-methoxyphenyl)iminomethylcamptothecin] | 0.06 µM |  |
| CC[C@@]1(O)C(=O)OCc2c1cc1n(c2=O)Cc2c-1nc1ccccc1c2C=Nc1ccccc1C(C)(C)C [ST2388, 7-(2-t-butylphenyl)iminomethylcamptothecin] | 0.07 µM |  |
| CC[C@@]1(O)C(=O)OCc2c1cc1n(c2=O)Cc2c-1nc1ccccc1c2C=Nc1ccccc1O [ST2389, 7-(2-hydroxyphenyl)iminomethylcamptothecin] | 0.06 µM |  |
| CC[C@@]1(O)C(=O)OCc2c1cc1n(c2=O)Cc2c-1nc1ccccc1c2C=Nc1ccc(Cl)cc1 [ST2412, 7-(4-chlorophenyl)iminomethylcamptothecin] | 0.08 µM |  |
| CC[C@@]1(O)C(=O)OCc2c1cc1n(c2=O)Cc2c-1nc1ccccc1c2C=Nc1ccc(OC)cc1 [ST2477, 7-(4-methoxyphenyl)iminomethylcamptothecin] | 0.16 µM |  |
| CCC1(O)C(=O)OCc2c1cc1n(c2=O)Cc2c-1nc1ccccc1c2C=Nc1ccc(C)cc1 (stereo not shown) [ST2478, 7-(4-methylphenyl)iminomethylcamptothecin] | 0.18 µM |  |
| CCC1(O)C(=O)OCc2c1cc1n(c2=O)Cc2c-1nc1ccccc1c2C=Nc1ccc(O)cc1 (stereo not shown) [ST 2616, 7-(4-hydroxyphenyliminomethyl)-camptothecin] | 0.22 µM |  |
| CCC1(O)C(=O)OCc2c1cc1n(c2=O)Cc2c-1nc1ccccc1c2C=Nc1ccc(C(C)(C)C)cc1 (stereo not shown) [ST 2619, 7-(4-tert-butylphenyliminomethyl)-camptothecin] | 0.09 µM |  |
| CCC1(O)C(=O)OCc2c1cc1n(c2=O)Cc2c-1nc1ccccc1c2C=Nc1ccc(SC)cc1 (stereo not shown) [ST 2667, 7-(4-methylthiophenyliminomethyl)-camptothecin] | 0.074 µM |  |
| CC[C@@]1(O)C(=O)OCc2c1cc1n(c2=O)Cc2cc3c(CN(C)C)c(O)ccc3nc2-1 [Topotecan] |  | level in the cerebrospinal fluid with respect to plasma ([2]; 10 minutes after infusion): 30%; lactone form hydrolysed to open ring ([2]; 30 minutes after infusion): 50% |
